Source: patent US20250213505A1, “DEVICES AND METHODS FOR DELIVERING SYNERGISTIC ACTIVE AGENTS TO TARGET SITES” (priority 2023, published 2025)
Where two headings read alike, the source gives them in different places.

Legend:
Type in all cases: cell-based
E. coli (ATCC BAA 1427) [1] = test: Minimal bactericidal concentration, serial 2-fold dilution
Description: (§1) The minimal bactericidal concentration (MBC) of benzalkonium chloride was determined against S. aureus (ATCC 6538), P. aeruginosa (ATCC 15442), and E. coli (ATCC BAA 1427) by serial 2-fold dilution experiments. A solution of chlorhexidine (0.025% w/w) was used as a positive control and comparator.

[2] = test system: P. aeruginosa (ATCC 15442); test: as above
Description: as §1

S. aureus (ATCC 6538) [3] = test: as above
Description: as §1

S. aureus = test: Chequerboard assay, FIC and synergy analysis; conditions: for MIC: Staphylococcus aureus
Description: (§2) Chlorhexidine gluconate (CHG) and benzalkonium chloride (BZK) were analyzed by chequerboard assay with each test organism to determine potential additive, synergistic, antagonistic activity. The test organisms S. aureus, P. aeruginosa, and E. coli were tested at ranges of chlorhexidine gluconate (0.122-15.625 μg/mL, 1.25-160 μg/mL, and […], respectively) and benzalkonium chloride (0.029-3.75 μg/mL, 0.4688-60 μg/mL, and 0.2344-30 μg/mL, respectively). The results of the chequerboard experiment are shown in Table X. FIC was calculated by the following Equation 2: […]

P. aeruginosa = test: Chequerboard assay, FIC and synergy analysis; conditions: for MIC: Pseudomonas aeruginosa
Description: as §2

E. coli = test: Chequerboard assay, FIC and synergy analysis; conditions: for MIC: Escherichia coli
Description: as §2

E. coli (ATCC BAA 1427) [4] = test: Minimum inhibitory concentration / growth inhibition, serial 2-fold dilution
Description: as §1, with “inhibitory” for “bactericidal”, “(MIC, the minimum inhibitory concentration required for 90% growth reduction)” for “(MBC)”

[5] = test system: P. aeruginosa (ATCC 15442); test: as above
Description: as §1, with “inhibitory” for “bactericidal”, “(MIC, the minimum inhibitory concentration required for 90% growth reduction)” for “(MBC)”

S. aureus (ATCC 6538) [6] = test: as above
Description: as §1, with “inhibitory” for “bactericidal”, “(MIC, the minimum inhibitory concentration required for 90% growth reduction)” for “(MBC)”

[7] = concentration 250 μg/mL (0.025% w/w), positive control
[8] = concentration 250 μg/mL (0.025% w/w), positive control, listed as chlorhexidine
[9] = concentration 250 μg/mL, positive control
[10] = read-out: MIC of CHG in Presence of BZK
[11] = concentration 0.46875 μg/mL, average of triplicate
[12] = concentration 0.9375 μg/mL, average of triplicate
[13] = concentration 1.875 μg/mL, average of triplicate
[14] = concentration 3.75 μg/mL, average of triplicate
[15] = concentration 7.5 μg/mL, average of triplicate
[16] = concentration 15 μg/mL, average of triplicate
[17] = concentration 30 μg/mL, average of triplicate
[18] = concentration 60 μg/mL, average of triplicate
[19] = serial 2-fold dilution, triplicate
[20] = concentration 0.46875 μg/mL, triplicate
[21] = concentration 0.9375 μg/mL, triplicate
[22] = concentration 1.875 μg/mL, triplicate
[23] = concentration 3.75 μg/mL, triplicate
[24] = concentration 7.5 μg/mL, triplicate
[25] = concentration 15 μg/mL, triplicate
[26] = concentration 30 μg/mL, triplicate
[27] = concentration 60 μg/mL, triplicate

## N=C(NCCCCCCNC(=N)NC(=N)Nc1ccc(Cl)cc1)NC(=N)Nc1ccc(Cl)cc1 [Chlorhexidine gluconate, 1-[amino-[6-[amino-[amino-(4-chlorophenyl)amino-methylidene]amino-methylidene]aminohexylimino]methyl]imino-N-(4-chlorophenyl)-methanediamine; (2R,3S,4R,5R)-2,3,4,5,6-pentahydroxyhexanoic acid.]
E. coli (ATCC BAA 1427) [1]; [7]
  Number of Colonies: 0
E. coli (ATCC BAA 1427) [1]; [8]
  Number of Colonies: no colonies
E. coli (ATCC BAA 1427) [1]; [9]
  CFU/mL: 0 CFU/mL
[2]; [7]
  Number of Colonies: 0
[2]; [8]
  Number of Colonies: no colonies
[2]; [9]
  CFU/mL: 0 CFU/mL
S. aureus (ATCC 6538) [3]; [7]
  Number of Colonies: 0
S. aureus (ATCC 6538) [3]; [8]
  Number of Colonies: no colonies
S. aureus (ATCC 6538) [3]; [9]
  CFU/mL: 0 CFU/mL
S. aureus; read-out: MIC of CHG Alone
  MIC: 1.95 µg/mL
S. aureus; [10]
  MIC: 0.977 µg/mL
P. aeruginosa; read-out: MIC of CHG Alone (μg/mL)
  MIC: 40 µg/mL
P. aeruginosa; read-out: MIC of CHG in Presence of BZK (μg/mL)
  MIC: 2.5 µg/mL
E. coli; read-out: MIC of CHG Alone
  MIC: 8 µg/mL
E. coli; [10]
  MIC: 4 µg/mL
E. coli (ATCC BAA 1427) [4]; Escherichia coli, BAA1427, concentration 250 μg/mL (0.025% w/w), positive control
  inhibition at 250 µg/mL: 63%
[5]; Pseudomonas aeruginosa, ATCC15442, read-out: Average Growth Inhibition (%)
  inhibition at 250 µg/mL: 81%
S. aureus (ATCC 6538) [6]; Staphylococcus aureus, ATCC6538, read-out: Average Growth Inhibition (%)
  inhibition at 250 µg/mL: 121%

## Benzalkonium chloride
E. coli (ATCC BAA 1427) [1]; concentration 0.46875 μg/mL
  CFU/mL: Lawn
E. coli (ATCC BAA 1427) [1]; [11]
  Number of Colonies: Lawn (‘Lawn’ indicates too many colonies to accurately count (e.g., greater than 250 colonies on an agar plate))
E. coli (ATCC BAA 1427) [1]; concentration 0.9375 μg/mL
  CFU/mL: Lawn
E. coli (ATCC BAA 1427) [1]; [12]
  Number of Colonies: Lawn (‘Lawn’ indicates too many colonies to accurately count (e.g., greater than 250 colonies on an agar plate))
E. coli (ATCC BAA 1427) [1]; concentration 1.875 μg/mL
  CFU/mL: Lawn
E. coli (ATCC BAA 1427) [1]; [13]
  Number of Colonies: Lawn (‘Lawn’ indicates too many colonies to accurately count (e.g., greater than 250 colonies on an agar plate))
E. coli (ATCC BAA 1427) [1]; concentration 3.75 μg/mL
  CFU/mL: Lawn
E. coli (ATCC BAA 1427) [1]; [14]
  Number of Colonies: Lawn (‘Lawn’ indicates too many colonies to accurately count (e.g., greater than 250 colonies on an agar plate))
E. coli (ATCC BAA 1427) [1]; concentration 7.5 μg/mL
  CFU/mL: Lawn
E. coli (ATCC BAA 1427) [1]; [15]
  Number of Colonies: Lawn (‘Lawn’ indicates too many colonies to accurately count (e.g., greater than 250 colonies on an agar plate))
E. coli (ATCC BAA 1427) [1]; concentration 15 μg/mL
  CFU/mL: 0 CFU/mL
E. coli (ATCC BAA 1427) [1]; [16]
  Number of Colonies: 0
E. coli (ATCC BAA 1427) [1]; concentration 30 μg/mL
  CFU/mL: 0 CFU/mL
E. coli (ATCC BAA 1427) [1]; [17]
  Number of Colonies: 0
E. coli (ATCC BAA 1427) [1]; concentration 60 μg/mL
  CFU/mL: 0 CFU/mL
E. coli (ATCC BAA 1427) [1]; [18]
  Number of Colonies: 0
E. coli (ATCC BAA 1427) [1]; [19]
  MBC (defined as having less than 500 CFU/mL): 15 µg/mL
[2]; concentration 0.46875 μg/mL
  CFU/mL: Lawn
[2]; [11]
  Number of Colonies: Lawn (‘Lawn’ indicates too many colonies to accurately count (e.g., greater than 250 colonies on an agar plate))
[2]; concentration 0.9375 μg/mL
  CFU/mL: Lawn
[2]; [12]
  Number of Colonies: Lawn (‘Lawn’ indicates too many colonies to accurately count (e.g., greater than 250 colonies on an agar plate))
[2]; concentration 1.875 μg/mL
  CFU/mL: Lawn
[2]; [13]
  Number of Colonies: Lawn (‘Lawn’ indicates too many colonies to accurately count (e.g., greater than 250 colonies on an agar plate))
[2]; concentration 3.75 μg/mL
  CFU/mL: Lawn
[2]; [14]
  Number of Colonies: Lawn (‘Lawn’ indicates too many colonies to accurately count (e.g., greater than 250 colonies on an agar plate))
[2]; concentration 7.5 μg/mL
  CFU/mL: Lawn
[2]; [15]
  Number of Colonies: Lawn (‘Lawn’ indicates too many colonies to accurately count (e.g., greater than 250 colonies on an agar plate))
[2]; concentration 15 μg/mL
  CFU/mL: Lawn
[2]; [16]
  Number of Colonies: Lawn (‘Lawn’ indicates too many colonies to accurately count (e.g., greater than 250 colonies on an agar plate))
[2]; concentration 30 μg/mL
  CFU/mL: Lawn
[2]; [17]
  Number of Colonies: Lawn (‘Lawn’ indicates too many colonies to accurately count (e.g., greater than 250 colonies on an agar plate))
[2]; concentration 60 μg/mL
  CFU/mL: 166.67 CFU/mL
[2]; [18]
  Number of Colonies: 1.6667
[2]; [19]
  MBC (defined as having less than 500 CFU/mL): 60 µg/mL
S. aureus (ATCC 6538) [3]; concentration 0.46875 μg/mL
  CFU/mL: Lawn
S. aureus (ATCC 6538) [3]; [11]
  Number of Colonies: Lawn (‘Lawn’ indicates too many colonies to accurately count (e.g., greater than 250 colonies on an agar plate))
S. aureus (ATCC 6538) [3]; concentration 0.9375 μg/mL
  CFU/mL: Lawn
S. aureus (ATCC 6538) [3]; [12]
  Number of Colonies: Lawn (‘Lawn’ indicates too many colonies to accurately count (e.g., greater than 250 colonies on an agar plate))
S. aureus (ATCC 6538) [3]; concentration 1.875 μg/mL
  CFU/mL: 1133.3 CFU/mL
S. aureus (ATCC 6538) [3]; [13]
  Number of Colonies: 11.333
S. aureus (ATCC 6538) [3]; concentration 3.75 μg/mL
  CFU/mL: 1500 CFU/mL
S. aureus (ATCC 6538) [3]; [14]
  Number of Colonies: 15
S. aureus (ATCC 6538) [3]; concentration 7.5 μg/mL
  CFU/mL: 33.333 CFU/mL
S. aureus (ATCC 6538) [3]; [15]
  Number of Colonies: 0.333
S. aureus (ATCC 6538) [3]; concentration 15 μg/mL
  CFU/mL: 0 CFU/mL
S. aureus (ATCC 6538) [3]; [16]
  Number of Colonies: 0
S. aureus (ATCC 6538) [3]; concentration 30 μg/mL
  CFU/mL: 0 CFU/mL
S. aureus (ATCC 6538) [3]; [17]
  Number of Colonies: 0
S. aureus (ATCC 6538) [3]; concentration 60 μg/mL
  CFU/mL: 0 CFU/mL
S. aureus (ATCC 6538) [3]; [18]
  Number of Colonies: 0
S. aureus (ATCC 6538) [3]; [19]
  MBC (defined as having less than 500 CFU/mL): 7.5 µg/mL
S. aureus; alone
  MIC of BZK Alone: 0.9375 µg/mL
S. aureus; in presence of CHG
  MIC of BZK in Presence of CHG: 0.469 µg/mL
P. aeruginosa; alone
  MIC of BZK Alone: 60 µg/mL
P. aeruginosa; in presence of CHG
  MIC of BZK in Presence of CHG: 7.5 µg/mL
E. coli; alone
  MIC of BZK Alone: 15 µg/mL
E. coli; in presence of CHG
  MIC of BZK in Presence of CHG: 0.2344 µg/mL
E. coli (ATCC BAA 1427) [4]; [20]
  Average Growth Inhibition (%): 3%
E. coli (ATCC BAA 1427) [4]; [21]
  Average Growth Inhibition (%): 5%
E. coli (ATCC BAA 1427) [4]; [22]
  Average Growth Inhibition (%): 6%
E. coli (ATCC BAA 1427) [4]; [23]
  Average Growth Inhibition (%): 7%
E. coli (ATCC BAA 1427) [4]; [24]
  Average Growth Inhibition (%): 18%
E. coli (ATCC BAA 1427) [4]; [25]
  Average Growth Inhibition (%): 100%
E. coli (ATCC BAA 1427) [4]; [26]
  Average Growth Inhibition (%): 100%
E. coli (ATCC BAA 1427) [4]; [27]
  Average Growth Inhibition (%): 100%
E. coli (ATCC BAA 1427) [4]; [19]
  MIC that inhibited greater than 90% growth: 15 µg/mL
[5]; [20]
  Average Growth Inhibition (%): 4%
[5]; [21]
  Average Growth Inhibition (%): 5%
[5]; [22]
  Average Growth Inhibition (%): 7%
[5]; [23]
  Average Growth Inhibition (%): 7%
[5]; [24]
  Average Growth Inhibition (%): 8%
[5]; [25]
  Average Growth Inhibition (%): 8%
[5]; [26]
  Average Growth Inhibition (%): 28%
[5]; [27]
  Average Growth Inhibition (%): 100%
[5]; [19]
  MIC that inhibited greater than 90% growth: 60 µg/mL
S. aureus (ATCC 6538) [6]; [20]
  Average Growth Inhibition (%): −30%
S. aureus (ATCC 6538) [6]; [21]
  Average Growth Inhibition (%): 100%
S. aureus (ATCC 6538) [6]; [22]
  Average Growth Inhibition (%): 101%
S. aureus (ATCC 6538) [6]; [23]
  Average Growth Inhibition (%): 101%
S. aureus (ATCC 6538) [6]; [24]
  Average Growth Inhibition (%): 99%
S. aureus (ATCC 6538) [6]; [25]
  Average Growth Inhibition (%): 101%
S. aureus (ATCC 6538) [6]; [26]
  Average Growth Inhibition (%): 101%
S. aureus (ATCC 6538) [6]; [27]
  Average Growth Inhibition (%): 98%
S. aureus (ATCC 6538) [6]; [19]
  MIC that inhibited greater than 90% growth: 0.9375 µg/mL
